Experiment [1] in a line: inhibitors of non-replicating M. tuberculosis, dose response, luciferase, dry powder (AID 651620). It counts as functional. To be noted: Mycobacterium tuberculosis.
Experiment [2] is described as follows: inhibitors of non-replicating M. tuberculosis, dose response, luciferase, dry powder (AID 651619). To be noted: Mycobacterium tuberculosis. It is filed as functional.
For experiment [3], the target named is NAD-dependent protein deacylase sirtuin-5, mitochondrial (Homo sapiens, UniProt Q9NXA8). Nature of the experiment: SIRT5 deacylase inhibitors, dose response, biochemical, fluorescence imaging, cherry-pick, set 6 (AID 720597).
Experiment [4] can be described thus: HepG2 cell cytotoxicity, dose response, cytotoxicity control, ATP luminescence, dry powder, Set4 (AID 743143). It counts as functional, cell-based.
A short description of experiment [5]: P. falciparum Dd2 growth inhibitors, dose response, SYBR Green, dry powder samples, set 9 (AID 1159568). It counts as functional, cell-based.
Experiment [6] concerns the target G-protein coupled receptor 183 (Homo sapiens, UniProt P32249). Nature of the experiment: SAR confirmation of small molecule antagonists of the EBI2 receptor via a luminescent beta-arrestin assa. It is filed as functional.
Experiment [7] is described as follows: HepG2 cell cytotoxicity, dose response, cytotoxicity control, cherry-picked samples (AID 1159577). It counts as functional, cell-based.
Experiment [8] in a line: P. falciparum Dd2 growth inhibitors, dose response, SYBR Green, cherry-picked samples (AID 1159567). It is filed as functional, cell-based.
Experiment [9] is described as follows: RKO cell viability reduction, dose response, CellTiter-Glo luminescence (AID 1117322). It counts as functional.
Experiment [10] is described as follows: SNU-C1 cell viability reduction, dose response, CellTiter-Glo luminescence (AID 1117323). It counts as functional, cell-based.
Experiment [11] is described as follows: cytotoxicity toward Colo320 cells – cell-based, CellTiter-Glo luminescence, IC50, dose response (AID 1117334). It is filed as functional. To be noted: COLO 320.
The nature of experiment [12]: CellTiter-Glo luminescent dose response of DLD-1 viability loss (AID 1117352). It is filed as functional.
The nature of experiment [13]: Concentration-dependent survival of SW480 colon cancer line, luminescence detection with CellTiter-Glo, half-maximal inhibitory concentration (AID 1117338). It counts as functional.
Experiment [14] can be described thus: HeLa 4N DNA content increase, dose response, cell-based, IC50 (AID 1117351). It is filed as functional.
Experiment [15] is described as follows: HCT116 cell viability decrease, GSK3B pretreatment – CellTiter-Glo, IC50, dose response (AID 1117339). To be noted: HCT-116. It counts as functional.
Experiment [16] is described as follows: HeLa 2N DNA content increase, dose response, cell-based, IC50 (AID 1117349). It counts as functional.
Experiment [17] in a line: cytotoxicity toward HCT116 cells – cell-based, CellTiter-Glo luminescence, IC50, dose response (AID 1117332). The following applies: HCT-116. It is filed as functional.
Experiment [18] can be described thus: cytotoxicity toward HT-29 cells – cell-based, CellTiter-Glo luminescence, IC50, dose response (AID 1117330). It counts as functional.

The structures appear in SMILES notation. Active and inactive are the calls of the source. A value given as a limit tells only on which side of the number the result lay.

Sequence of G-protein coupled receptor 183 (P32249 whole entry): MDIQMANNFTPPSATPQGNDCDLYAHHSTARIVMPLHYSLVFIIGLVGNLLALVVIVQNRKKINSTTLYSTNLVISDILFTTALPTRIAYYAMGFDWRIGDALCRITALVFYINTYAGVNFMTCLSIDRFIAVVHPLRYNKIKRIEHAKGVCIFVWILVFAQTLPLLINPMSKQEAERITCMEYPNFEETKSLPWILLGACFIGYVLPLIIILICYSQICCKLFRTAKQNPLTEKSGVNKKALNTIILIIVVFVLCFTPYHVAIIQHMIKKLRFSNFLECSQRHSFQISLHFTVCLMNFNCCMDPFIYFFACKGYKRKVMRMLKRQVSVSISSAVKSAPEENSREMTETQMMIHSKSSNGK
Sequence of NAD-dependent protein deacylase sirtuin-5, mitochondrial (Q9NXA8 whole entry): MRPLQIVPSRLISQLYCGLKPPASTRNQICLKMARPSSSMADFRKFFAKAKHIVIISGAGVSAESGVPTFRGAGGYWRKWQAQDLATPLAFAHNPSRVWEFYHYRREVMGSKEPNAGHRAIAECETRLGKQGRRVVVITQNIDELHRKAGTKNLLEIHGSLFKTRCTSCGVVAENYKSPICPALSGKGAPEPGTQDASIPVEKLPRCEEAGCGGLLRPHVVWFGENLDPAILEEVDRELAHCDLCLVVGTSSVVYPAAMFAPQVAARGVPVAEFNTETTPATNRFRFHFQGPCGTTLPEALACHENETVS

For `c1ccc(-c2nnc(SC3CCCCC3)o2)cc1`, the IC90 in experiment [1] and in [2] was 2 µM (active) in each case.

`COc1ccc(NC(=O)N2C[C@H](O)COC[C@@H]3O[C@@H](CC(=O)N4CCCCC4)CC[C@H]32)cc1`: the AC50 in [3] is 26.1 µM (active).

For `O=C(CCCNC(=O)c1ccc(Cl)c(Cl)c1)N[C@@H]1CCCc2ccccc21`, the AC50 in experiment [4] is > 52 µM (inactive).

As to `COc1ccc2c3c(n(C)c2c1)[C@@H](CO)N(Cc1ccc2c(c1)OCO2)CC31CN(C(=O)c2ccc3c(c2)OCO3)C1`, the concentration at half-maximal activity (AC50) in experiment [5] is 1.21 µM (active).

`Cc1ccc(S(=O)(=O)N2CCN(C(=O)/C=C/c3ccc(F)cc3)CC2)cc1`: the IC50 in experiment [6] was 0.00767 µM (active).

Consider `Cc1ccccc1S(=O)(=O)N1CC(=O)N2[C@H](C1)[C@@H](c1ccc(C#CCC3CCCC3)cc1)[C@@H]2CO`, for which the AC50 in [7] is > 42 µM (inactive); in experiment [8] it was 3.64 µM (active).

For the compound `Cc1c(C)c2c(c(C)c1O)CCC(C)(COc1ccc(CC3SC(=O)NC3=O)cc1)O2` (stereo not drawn) [TROGLITAZONE], the IC50 in experiment [9] was 7.76 µM (inactive); in [10], > 20 µM (inactive); in experiment [11] it was 9.49 µM (inactive); in [12], 12.3 µM (inactive); in experiment [13] it was 5.59 µM (inactive); in [14] it was > 10 µM (inactive). For the same compound, the concentration for half-maximal inhibition (IC50) in [15] is 1.3 µM (active); in experiment [16], > 10 µM (inactive); in [17], 1.4 µM (active); in experiment [18], > 20 µM (inactive).

Values taken from ChEMBL document CHEMBL1201862, “PubChem BioAssay data set” (2004).
